In patent US20260232709A1, “COMPOSITION COMPRISING MELOSIDE FOR ALLEVIATING HAIR LOSS AND IMPROVING HAIR GROWTH” (MORECHEM CO., LTD., priority 2024, published 2026):
Entries after “also recorded” stand apart in the source; their conditions may differ.

Legend:
IL-6 (Interleukin 6) = assay: IL-6 expression in DHT-treated HDPC supernatant (ELISA); format: cell-based, human; settings: HDPC treated with 100 μg/mL DHT, 30 or 100 ppm, 1 day, FIG. 11
Protocol: Specifically, the following groups were prepared: (i) a negative control group, where neither Dihydrotestosterone (DHT) nor Meloside A and L were treated on human dermal papilla cells (HDPC); (ii) an untreated group, where 100 μg/mL DHT was treated on HDPC, but neither Meloside A nor L was treated; (iii) a positive control group, where HDPC were treated with 100 μM Minoxidil or 20 μM Dexamethasone (DEX); and (iv) a treated group, where HDPC were first treated with 100 μg/mL DHT to increase IL-6 expression, and then treated with Meloside A or L at concentrations of 30 or 100 ppm, respectively, for 1 day. After preparation, the cell supernatants from HDPC of (i) to (iv) were obtained, and the increase or decrease in the expression level of IL-6 (Interleukin 6) was confirmed using an Enzyme-Linked Immunosorbent Assay (ELISA). For the analysis of expression patterns for each sample, normalization was performed based on a standard sample of IL-6, and the results are shown in FIG. 11.

[1] = system: dermal papilla cells (HDPC); assay: Protection against DKK1-induced death of dermal papilla cells (CCK-8); format: cell-based, human; settings: 30 or 100 ppm for 1 day, then DKK1, FIG. 10
Protocol: Specifically, HDPC were treated with Meloside A or L at concentrations of 30 or 100 ppm, respectively, for 1 day, and then cell death was induced with DKK1 (dickkopf WNT signaling pathway inhibitor 1). For comparison, HDPC that were neither treated with Meloside A or L nor with DHT were used as the negative control group. HDPC treated with DHT but without Meloside A and L were used as the untreated group. HDPC treated with 100 μM Minoxidil or 5 mM NAC followed by DHT treatment were used as the positive control group.
CCK-8 (Cell Counting Kit-8, Dojindo, EU) reagent was added to the HDPC according to the manufacturer's protocol, and absorbance was measured at a wavelength of 450 nm using a microplate reader (BioTeK, USA) to confirm the cell viability of dermal papilla cells because of Meloside treatment, compared to the negative control group (treated with DMEM instead of Meloside A or L).

[2] = system: human dermal papilla cells (HDPC); assay: Cytotoxicity / growth-proliferation of dermal papilla cells (CCK-8); format: cell-based; settings: 10, 30, 50, 100 ppm, 1 day, CCK-8, 450 nm, FIG. 1
Protocol: Human hair dermal papilla cells (HDPC), used in the test examples described below, were cultured in Dulbecco's Modified Eagle Medium (DMEM, WELGENE) supplemented with 10% Fetal Bovine Serum (FBS, WELGENE) and 1% antibiotics (Penicillin-Streptomycin, WELGENE) as the culture medium, in an incubator at 37° C., 5% CO2, and humid conditions.
(§1) Specifically, after treating human dermal papilla cells (HDPC) or human outer root sheath cells (ORS) with Meloside A or Meloside L at concentrations of 10, 30, 50, and 100 ppm for 1 day, CCK-8 (Cell Counting Kit-8, Dojindo, EU) reagent was added to the treated HDPC according to the manufacturer's protocol. Absorbance was then measured at a wavelength of 450 nm using a microplate reader (BioTeK, USA), and the extent of HDPC growth/proliferation by Meloside treatment was compared and confirmed against the negative control group (treated with DMEM instead of Meloside A or L).

androgen receptor = molecular target: T1, androgen receptor (Homo sapiens, UniProt P10275); assay: Androgen receptor nuclear translocation in dermal papilla cells (EGFP-AR, fluorescence microscopy); format: cell-based; settings: DHT co-treated with 100 ppm, 24 hours, FIGS. 5 and 6
T1 construct: host or cells: dermal papilla cells
T1 sequence (P10275 1-920): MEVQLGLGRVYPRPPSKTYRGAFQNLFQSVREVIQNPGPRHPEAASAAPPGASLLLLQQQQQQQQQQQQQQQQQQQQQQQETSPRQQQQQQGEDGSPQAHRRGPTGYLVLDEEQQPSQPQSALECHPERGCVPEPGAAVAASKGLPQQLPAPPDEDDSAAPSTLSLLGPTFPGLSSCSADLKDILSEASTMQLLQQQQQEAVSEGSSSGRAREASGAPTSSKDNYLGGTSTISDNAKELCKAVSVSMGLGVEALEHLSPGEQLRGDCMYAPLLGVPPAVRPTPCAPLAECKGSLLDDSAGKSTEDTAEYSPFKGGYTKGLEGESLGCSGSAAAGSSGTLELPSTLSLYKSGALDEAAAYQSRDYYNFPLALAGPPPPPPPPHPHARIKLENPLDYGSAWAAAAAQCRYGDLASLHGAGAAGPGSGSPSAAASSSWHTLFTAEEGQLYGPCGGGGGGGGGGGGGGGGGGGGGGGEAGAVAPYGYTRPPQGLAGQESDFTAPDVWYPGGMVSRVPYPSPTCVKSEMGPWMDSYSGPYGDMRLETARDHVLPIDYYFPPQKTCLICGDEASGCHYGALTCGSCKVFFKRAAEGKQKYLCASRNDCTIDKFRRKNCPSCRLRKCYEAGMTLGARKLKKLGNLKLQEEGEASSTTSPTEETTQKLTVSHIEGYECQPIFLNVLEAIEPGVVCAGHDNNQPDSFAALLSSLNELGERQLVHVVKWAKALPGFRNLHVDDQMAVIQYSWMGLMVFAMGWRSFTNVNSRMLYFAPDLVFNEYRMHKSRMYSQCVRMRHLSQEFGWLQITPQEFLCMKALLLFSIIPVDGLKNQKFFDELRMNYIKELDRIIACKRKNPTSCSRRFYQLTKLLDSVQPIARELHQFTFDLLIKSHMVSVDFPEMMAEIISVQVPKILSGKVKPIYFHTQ
Protocol: To confirm the involvement of androgen receptors in hair loss-related gene transcription, recombinant plasmid EGFP-AR (Addgene) was used, and the extent of androgen receptor nuclear translocation in dermal papilla cells was measured using a cellular injection method.
For the untreated group, only DHT was treated, and for the negative control group, neither DHT nor the sample was treated. In the experimental group, DHT and Meloside A or L at 100 ppm were co-treated, and after 24 hours, measurements were taken using a fluorescence microscope at Ex 485 nm and Em 535 nm. The results observed with the fluorescence microscope are shown in FIG. 5, and the number of cells with translocated androgen receptors in the treated groups, based on the untreated group, is shown in FIG. 6.

[3] = system: human outer root sheath cells (ORS); assay: Cytotoxicity / growth-proliferation of outer root sheath cells (CCK-8); format: cell-based; settings: 10, 30, 50, 100 ppm, 1 day, CCK-8, 450 nm, FIG. 2
Protocol: Human Hair Outer Root Sheath Cells (ORS), used in the test examples described below, were cultured in culture plates coated with Poly-L-Lysine, using Mesenchymal Stem Cell Medium (MSCM, ScienCell) supplemented with 5% Fetal Bovine Serum (FBS, ScienCell), 1% Mesenchymal stem cell growth supplement (MSCGS, ScienCell), and antibiotics (Penicillin-Streptomycin, ScienCell) as the culture medium, in an incubator at 37° C., 5% CO2, and humid conditions.
as §1

| Compound | IL-6 expression level (IL-6 (Interleukin 6)) | cell protective effect against DKK1 (cell viability) [1] | cell growth/proliferation (cytotoxicity) of HDPC vs negative control [2] | DHT-induced translocation of androgen receptors (number of cells with translocated AR) (androgen receptor) | cell growth/proliferation (cytotoxicity) of ORS vs negative control [3] |
| --- | --- | --- | --- | --- | --- |
| O=c1cc(-c2ccc(O)cc2)oc2cc(O)c([C@@H]3O[C@H](CO)[C@@H](O)[C@H](O)[C@H]3O[C@@H]3O[C@H](CO)[C@@H](O)[C@H](O)[C@H]3O)c(O)c12 [Meloside A, isovitexin 2″-O-glucoside] | decrease in IL-6 expression | cell protective effect against DKK1 was confirmed | comparable levels of cell growth/proliferation to the negative control group | inhibited; also recorded: superior to that of Meloside L treatment | comparable levels of cell growth/proliferation to the negative control group |
| O=c1cc(-c2ccc(O)c(O)c2)oc2cc(O)c([C@@H]3O[C@H](CO)[C@@H](O)[C@H](O)[C@H]3O[C@@H]3O[C@H](CO)[C@@H](O)[C@H](O)[C@H]3O)c(O)c12 [Meloside L, isoorientin 2″-O-glucoside] | no IL-6 expression reduction effect was observed | no cell protective effect against DKK1 was observed | comparable levels of cell growth/proliferation to the negative control group | inhibited | comparable levels of cell growth/proliferation to the negative control group |
